Experimental data as given in PMC3566091, “Binding of the Radioligand SIL23 to α-Synuclein Fibrils in Parkinson Disease Brain Tissue Establishes Feasibility and Screening Approaches for Developing a Parkinson Disease Imaging Agent” (PLoS ONE, 2013).
Like-named read-outs stand apart in the source and are kept apart here. Blank lines part the entries; values can stand above or below the compound they belong to.

Columns and labels:
synthetic Aβ1–42 fibrils [1] = molecular target: T1, synthetic Aβ1–42 fibrils (Homo sapiens, UniProt P05067); assay: biochemical
T1 sequence (P05067 672-713 limits assumed): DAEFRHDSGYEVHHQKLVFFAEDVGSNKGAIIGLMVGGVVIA

PD tissue = system: PD tissue; parameters: method as in PMID 19576880; conditions: cited from earlier work
[2] = molecular target: T2, Human PD brain homogenate (insoluble fraction) (Homo sapiens, UniProt P37840); conditions: read-out: Ki, Human PD brain homogenate; 200 nM [125I]SIL23, 10 µg insoluble fraction/150 µl; 95% confidence interval in parentheses
[3] = molecular target: T3, recombinant α-syn fibrils (Homo sapiens, UniProt P37840); conditions: read-out: Ki, α-Syn fibrils; 200 nM [125I]SIL23, 1 µM fibrils; Ki from EC50; 95% confidence interval in parentheses
recombinant tau fibrils [4] = molecular target: T4, recombinant tau fibrils (Homo sapiens, UniProt P10636); assay: biochemical
T4 sequence (P10636 560-692): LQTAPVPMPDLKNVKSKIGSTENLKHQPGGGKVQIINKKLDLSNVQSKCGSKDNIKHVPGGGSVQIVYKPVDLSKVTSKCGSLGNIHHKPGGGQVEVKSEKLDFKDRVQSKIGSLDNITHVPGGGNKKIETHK

[5] = molecular target: T3, recombinant α-syn fibrils; assay: biochemical
[6] = molecular target: T2, Human PD brain homogenate (insoluble fraction); assay: biochemical
Aβ plaques in AD brain [7] = system: Aβ plaques in AD brain; parameters: method as in PMID 16291932; conditions: cited from earlier work
recombinant tau fibrils [8] = molecular target: T4, recombinant tau fibrils
[9] = system: crude PBS homogenate from control human brain; assay: [125I]SIL23 saturation binding to crude control brain homogenate; conditions: unfractionated PBS homogenate
Experimental: (§1) All data points were performed in triplicate.

synthetic Aβ1–42 fibrils [10] = molecular target: T1, synthetic Aβ1–42 fibrils
[11] = system: insoluble fractions from control human brain tissue; assay: [125I]SIL23 saturation binding to insoluble fractions of control brain tissue; conditions: four control cases, listed as [^125I]SIL23
Experimental: Brain tissue samples were selected from an autopsy case series of patients evaluated for parkinsonism by movement disorders specialists at the Movement Disorders Center of Washington University School of Medicine in St. Louis. The clinical diagnosis of idiopathic PD was based on modified United Kingdom Parkinson’s Disease Society Brain Bank clinical diagnostic criteria with clear clinical response to levodopa. Dementia was determined by a movement disorders specialist based on clinical assessment of cognitive dysfunction sufficiently severe to impair activities of daily living, with further evaluation of cognitive impairment using the AD8 [20] and Mini-Mental Status Exam (MMSE). LB stage was assessed at autopsy using a PD staging scale (range: 0, 1–6). PD cases were selected based on a clinical diagnosis of PD plus dementia, Braak LB stage 5–6 pathology, and the absence of significant Aβ or tau pathology determined by immunohistochemistry. Control cases were selected based on the absence of α-syn, Aβ and tau pathology. Samples were used from both male and female subjects.
as §1

Aβ plaques in AD brain [12] = conditions: cited from earlier work

SMILES: CN(C)c1ncc(/C=C/c2nc3ccc(OCCF)cc3o2)s1 [BF227]
radiolabeled BF227 binding in PD tissue (PD tissue): not detectable
Ki [2]: 138 nM
Ki [3]: 39.7 nM

SMILES: O=[N+]([O-])c1ccc2c(c1)Sc1ccccc1N2 [SIL3B]
Ki (synthetic Aβ1–42 fibrils [1]): 71.5 nM
Ki (recombinant tau fibrils [4]): 52.3 nM

SMILES: O=C(O)c1cc(/N=N/c2ccc(-c3ccc(/N=N/c4ccc(O)c(C(=O)O)c4)cc3)cc2)ccc1O [Chrysamine G]
Ki [5]: 432 nM
Ki [6]: 367 nM

SMILES: CNc1ccc(-c2nc3ccc(O)cc3s2)cc1 [PiB, Pittsburgh Compound B]
Ki [5]: 116 nM
Ki [6]: 99.2 nM
average Bmax (binding site density) for PiB binding in AD brain (Aβ plaques in AD brain [7]; AD brain): 1407 pmol/g wet weight
Kd (Aβ plaques in AD brain [7]; read-out: Kd for PiB binding to Aβ plaques): 2.5 nM

SMILES: O=[N+]([O-])c1ccc2c(c1)Sc1cc(OC/C=C/I)ccc1N2 [SIL23]
Bmax of [125I]SIL23 binding to tau fibrils (recombinant tau fibrils [8]): 4.57 pmol/nmol
[125I]SIL23 binding in crude homogenate of a control case [9]: no significant binding
[125I]SIL23 binding in crude homogenate of a control case ([9]; listed as [^125I]SIL23): No significant specific binding
Bmax of [125I]SIL23 binding to Aβ1–42 fibrils (synthetic Aβ1–42 fibrils [10]): 23.7 pmol/nmol
[125I]SIL23 binding in control cases [11]: no significant [^125I]SIL23 binding

SMILES: CNc1ccc(/C=C/c2ccc(OCCOCCOCCF)nc2)cc1 [AV-45]
average Bmax (binding site density) for AV-45 binding in AD brain (Aβ plaques in AD brain [12]; AD brain): 8.8 pmol/mg protein
Kd (Aβ plaques in AD brain [12]; read-out: Kd for AV-45 binding to Aβ plaques): 3.7 nM

Now from value to compound:

Ki (synthetic Aβ1–42 fibrils [1]): 110 nM
SMILES: COc1ccc2c(c1)Sc1cc([N+](=O)[O-])ccc1N2 [SIL5]

Ki (synthetic Aβ1–42 fibrils [1]): 102 nM
Ki (recombinant tau fibrils [4]): 173 nM
SMILES: O=[N+]([O-])c1ccc2c(c1)Sc1cc(Br)ccc1N2 [SIL22]
